Test results from ChEMBL document CHEMBL1914432, “Discovery of highly potent small molecule Hepatitis C Virus entry inhibitors” (Bioorg Med Chem Lett, 2011).
Calls of active or inactive are those of the source. The calls are words filed in the database; no cut-off is given here.

Experiments:
Hepatitis C virus = assay: Antiviral activity against chronic Hepatitis C virus type 2a infected in human HuH7 cells by Renilla luciferase reporter gene assay; assay type: functional, organism-based, Hepacivirus hominis; details: genotype 2a, Huh-7
Plasma [1] = assay: Metabolic stability in rat plasma; assay type: ADME, cell-free
[2] = Apparent volume of distribution in rat at 2 mg/kg, iv and 20 mg/kg, po; assay type: ADME, organism-based; details: in vivo, read-out: Vz
[3] = Cmax in rat at 2 mg/kg, iv and 20 mg/kg, po; assay type: ADME, organism-based; details: in vivo
[4] = AUC (all) in rat at 2 mg/kg, iv and 20 mg/kg, po; assay type: ADME, organism-based; details: plasma
[5] = Half life in rat at 2 mg/kg, iv and 20 mg/kg, po; assay type: ADME, organism-based; details: in vivo
[6] = target: T1, Scavenger receptor class B member 1 (Homo sapiens) (UniProt Q8WTV0); assay: Inhibition of human SRB1-mediated Hepatitis C virus genotype 2a entry into human 293T cells by immunoblotting; assay type: cell-based
T1 sequence (whole entry): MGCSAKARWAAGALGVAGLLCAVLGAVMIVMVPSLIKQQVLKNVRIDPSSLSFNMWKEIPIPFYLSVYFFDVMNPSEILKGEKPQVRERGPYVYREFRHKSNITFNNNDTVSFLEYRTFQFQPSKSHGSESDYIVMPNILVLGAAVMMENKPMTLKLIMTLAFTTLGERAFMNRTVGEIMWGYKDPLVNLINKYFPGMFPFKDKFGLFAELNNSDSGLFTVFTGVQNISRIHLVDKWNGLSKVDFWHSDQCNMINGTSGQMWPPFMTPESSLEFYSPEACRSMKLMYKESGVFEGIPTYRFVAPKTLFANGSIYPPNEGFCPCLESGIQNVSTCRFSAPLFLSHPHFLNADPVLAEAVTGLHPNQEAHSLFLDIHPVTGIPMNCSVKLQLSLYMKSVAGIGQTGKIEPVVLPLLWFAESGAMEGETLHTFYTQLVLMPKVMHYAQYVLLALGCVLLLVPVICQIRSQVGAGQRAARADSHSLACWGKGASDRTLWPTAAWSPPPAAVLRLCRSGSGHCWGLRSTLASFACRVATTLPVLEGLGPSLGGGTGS

[7] = Oral bioavailability in rat at 20 mg/kg; assay type: ADME, organism-based; details: in vivo
[8] = Clearance in rat at 2 mg/kg, iv and 20 mg/kg, po; assay type: ADME, organism-based; details: in vivo
Plasma [9] = assay: Drug metabolism in rat plasma assessed as plasma esterase-mediated formation of 9-(3-(4,6-dimethoxypyrimidin-2-ylamino)propyl-2,3,4,9-tetrahydro-1H-carbazole-6-carboxylic acid by LC-MS analysis; assay type: ADME, cell-free

SMILES	IC50 (Hepatitis C virus)	further results
COC(=O)c1ccc2c(c1)c1c(n2CCc2nc3ccccc3[nH]2)CCCC1	5 nM	–
COC(=O)c1ccc2c(c1)c1c(n2CCCn2ccnc2)CCCC1	170 nM	–
COC(=O)c1ccc2c(c1)c1c(n2CCCn2cnc3ncncc32)CCCC1	50 nM	–
COC(=O)c1ccc2c(c1)c1c(n2C2CCN(c3nc(OC)cc(OC)n3)CC2)CCCC1	300 nM	–
CCc1cc(CC)nc(OCCCn2c3c(c4cc(C(=O)OC)ccc42)CCCC3)n1	1.5 nM	–
CNC(=O)c1ccc2c(c1)c1c(n2CCCNc2nc(OC)cc(OC)n2)CCCC1	10 nM	Stability (Plasma [1]): Stable; Vd [2]: 1.33 L/kg; Cmax [3]: 51 ng/mL; AUC [4]: 45 ng·h/mL; half-life [5]: 28.2 min; inhibition [6]: Active; bioavailability [7]: 0.8%; clearance [8]: 58.2 mL/min/kg
COC(=O)c1ccc2c(c1)c1c(n2CCCN2CCOCC2)CCCC1	150 nM	–
COC(=O)c1ccc2c(c1)c1c(n2CCCC(=O)N(C)C)CCCC1	300 nM	–
COc1cc(OC)nc(NCCCn2c3c(c4cc(C(=O)NC(C)C)ccc42)CCCC3)n1	150 nM	Stability (Plasma [1]): Stable
COC(=O)c1ccc2c(c1)c1c(n2CCCCNc2nc(OC)cc(OC)n2)CCCC1	30 nM	–
COC(=O)c1ccc2c(c1)c1c(n2CCCS(=O)(=O)N2CCCCC2)CCCC1	30 nM	–
COC(=O)c1ccc2c(c1)c1c(n2CCCN(C)c2nc(OC)cc(OC)n2)CCCC1	1.5 nM	–
COC(=O)c1ccc2c(c1)c1c(n2CCS(=O)(=O)N(C)C)CCCC1	> 1000 nM	–
COC(=O)c1ccc2c(c1)c1c(n2CCc2nc3cc(C)c(C)cc3[nH]2)CCCC1	5 nM	–
COC(=O)c1ccc2c(c1)c1c(n2CCCNc2nccc(OC)n2)CCCC1	15 nM	–
COC(=O)c1ccc2c(c1)c1c(n2CCCNc2ncccn2)CCCC1	50 nM	–
COC(=O)c1ccc2c(c1)c1c(n2CCCOc2cc(Cl)nc(C)n2)CCCC1	1.5 nM	–
COC(=O)c1ccc2c(c1)c1c(n2CCCOc2nc(OC)cc(OC)n2)CCCC1	0.6 nM	–
COC(=O)c1ccc2c(c1)c1c(n2CCCNc2nc(OC)nc(OC)n2)CCCC1	15 nM	–
COC(=O)c1ccc2c(c1)c1c(n2CCCNS(=O)(=O)c2cc(F)cc(F)c2)CCCC1	15 nM	–
COC(=O)c1ccc2c(c1)c1c(n2CCCN2C[C@@H](C)N[C@@H](C)C2)CCCC1	40 nM	–
COc1cc(OC)nc(NCCCn2c3c(c4cc(C(=O)N(C)C)ccc42)CCCC3)n1	30 nM	Stability (Plasma [1]): Stable; Vd [2]: 2.05 L/kg; Cmax [3]: 51 ng/mL; AUC [4]: 41 ng·h/mL; half-life [5]: 33 min; inhibition [6]: Active; bioavailability [7]: 0.6%; clearance [8]: 45 mL/min/kg
COC(=O)c1ccc2c(c1)c1c(n2CCCOc2nc(C)cc(C(F)(F)F)n2)CCCC1	5 nM	–
COC(=O)c1ccc2c(c1)c1c(n2CCCN2CCCC(C(=O)N(C)C)C2)CCCC1 (stereo not given)	50 nM	–
COc1cc(OC)nc(NCCCn2c3c(c4cc(C(=O)O)ccc42)CCCC3)n1	–	Activity (Hepatitis C virus; Hepacivirus hominis): inactive; inhibition [6]: inactive
COC(=O)c1ccc2c(c1)c1c(n2CC2CCCN(c3nc(OC)cc(OC)n3)C2)CCCC1 (stereo not given)	50 nM	–

Continued by falling IC50 (Hepatitis C virus), values first:

IC50 (Hepatitis C virus)	SMILES	further results
310 nM	COC(=O)c1ccc2c(c1)c1c(n2CCCn2cncc2C)CCCC1	–
150 nM	COC(=O)c1ccc2c(c1)c1c(n2CCCS(=O)(=O)N2C[C@@H](C)O[C@@H](C)C2)CCCC1	–
65 nM	COC(=O)c1ccc2c(c1)c1c(n2CCCN2CCNC(=O)C2)CCCC1	–
50 nM	COC(=O)c1ccc2c(c1)c1c(n2CCCNS(=O)(=O)C(C)C)CCCC1	–
50 nM	CCN(CC)C(=O)c1ccc2c(c1)c1c(n2CCCNc2nc(OC)cc(OC)n2)CCCC1	Stability (Plasma [1]): Stable
50 nM	COC(=O)c1ccc2c(c1)c1c(n2CCCS(=O)(=O)c2ccccc2)CCCC1	–
30 nM	COC(=O)c1ccc2c(c1)c1c(n2CCCNc2nc(C)cc(C(=O)OC)n2)CCCC1	–
30 nM	COC(=O)c1ccc2c(c1)c1c(n2CCCNc2cc(C)nc(Cl)n2)CCCC1	–
25 nM	COC(=O)c1ccc2c(c1)c1c(n2CCCN2C[C@@H](C)O[C@@H](C)C2)CCCC1	–
15 nM	COC(=O)c1ccc2c(c1)c1c(n2CCCS(=O)(=O)N2CCC2)CCCC1	–
15 nM	COC(=O)c1ccc2c(c1)c1c(n2CCCS(=O)(=O)N2CCOCC2)CCCC1	–
15 nM	COC(=O)c1ccc2c(c1)c1c(n2CC2CCN(c3nc(OC)cc(OC)n3)CC2)CCCC1	–
10 nM	COc1cc(OC)nc(NCCCn2c3c(c4cc(C(=O)OC(C)C)ccc42)CCCC3)n1	Stability (Plasma [1]): Stable; Vd [2]: 17.6 L/kg; Cmax [3]: 547 ng/mL; AUC [4]: 896 ng·h/mL; half-life [5]: 74.4 min; inhibition [6]: Active; bioavailability [7]: 19%; clearance [8]: 71.8 mL/min/kg
5 nM	COC(=O)c1ccc2c(c1)c1c(n2CCCS(=O)(=O)N(C)C)CCCC1	–
1.5 nM	COC(=O)c1ccc2c(c1)c1c(n2CCCNc2nc(OC)cc(OC)n2)CCCC1	Drug metabolism (Plasma [9]): Active; inhibition [6]: Active
